Results: patent US12365643B2, “Phenoxy carboxylic acid compounds and medical uses thereof” (QINGDAO RISING BIOTECHNOLOGY CO., LTD, priority 2018, dated 2025)

Assays:
[1] = system: phosphorylated GSK3β; test: Phosphorylated GSK3β level by Western blotting in HepG2; assay type: cell-based, human; conditions: 1 μM, 24 hours, HepG2, Western blotting (FIG. 6B)
Description: (§1) Carnitine palmitoyltransferase (CPT1α) is a rate-limiting enzyme of fatty acid oxidation. When the body or tissues are lacking in energy, CPT1α catalyzes the entry of fatty acids into mitochondria for […], and at the same time, CPT1α is also involved in the regulation of fatty acid-induced insulin resistance and inflammation. Protein kinase B/glycogen synthase kinase 3β (AKT/GSK3β) signaling pathway and insulin receptor substrate 1 (IRS-1) are key signaling pathways that regulate glucose metabolism in response to insulin signal. Therefore, by determining the effects of compounds on the CPT1α protein level and the AKT, GSK3β and IRS-1 protein phosphorylation levels, it is possible to evaluate the regulatory effects of the compounds on glycolipid metabolism.
(§2) After human liver cancer cells HepG2 were incubated with the compound of the present application or the control drug at 1 μM for 24 hours, the CPT1α protein level and the AKT, GSK3β and IRS-1 phosphorylated protein levels in the cells were determined by Western blotting; after gray-scale scanning by using Image J15.0.1, normalization was performed by using β-tubulin protein level as internal control, and the quantitative analysis results were shown in FIG. 6.

[2] = system: ACOX1; test: ACOX1 mRNA expression by real-time quantitative PCR in HepG2; assay type: cell-based, human; conditions: 1 μM, 6 hours, HepG2 (FIG. 5D)
Description: (§3) Peroxisome proliferation factor activated receptor (PPAR) is an important nuclear receptor that regulates glycolipid metabolism, including three subtypes: α, β/δ and γ. Peroxisome proliferator-activated receptor γ coactivator 1α (PGC-1α) is its auxiliary transcriptional activator. Acyl-CoA oxidase 1 (ACOX1) is the first rate-limiting enzyme for fatty acid β oxidation. Fatty acid binding protein 1 (FABP1) is highly expressed in liver, and can bind fatty acid, heme and other molecules to reduce their toxicity and damage. Up-regulating the expression level of these genes helps to improve the body's metabolism, and their agonists are an important class of anti-metabolic drugs. After the compound of the present application (1 μM) and the control drug gemfibrozil (1 μM) were incubated with human liver cancer cells HepG2 for 6 hours, real-time fluorescent quantitative PCR method was used to determine the relative expression of mRNA of related genes in the cells.
(§4) The company which synthesized the primers was Suzhou Hongxun Biotechnology Co., Ltd. Tranzol reagent (Tranzol total RNA extraction reagent, TransGen Biotech) was used to extract total RNA from tissues. 5× All-In-One RT MasterMix reverse transcription kit (Abcam, USA) and real-time quantitative PCR Master Mix (Aidlab Biotechnologies Co., Ltd) were used. Bio-Rad CFX Connect™ Real-Time PCR Detection System for qPCR was used, and 2^−ΔΔCT method was used for data analysis. The expression level of mRNA in the normal control group was set to 1, and the relative expression level of mRNA in the administration group was calculated, so as to confirm whether the active compound affected the PPAR pathway, thereby further regulating lipid metabolism.

[3] = system: phosphorylated IRS-1; test: Phosphorylated IRS-1 level by Western blotting in HepG2; assay type: cell-based, human; conditions: 1 μM, 24 hours, HepG2, Western blotting (FIG. 6C)
Description: as §1, §2

[4] = system: RAW264.7 mouse macrophages; test: Determination of NO generation induced by LPS; assay type: cell-based; conditions: 10 μM, 1 μg/mL LPS, 24 hours, RAW264.7 (FIG. 2)
Experimental: The results are expressed as the multiple of the NO content in the cell culture supernatant of the administration group (10 μM) as compared with that in the cell culture supernatant of the control group (DMSO group), in which compared with the control group, *P<0.05, **P<0.01, ***P<0.001.
NO is a reactive nitrogen species (RNS) and an important gas signal molecule. Macrophages could convert arginine into NO which participated in the body's inflammatory response. Therefore, determination of inhibitory activity of a drug on NO generation was one of the classic methods to evaluate drug's anti-inflammatory ability. RAW264.7 cells at exponential growth phase were inoculated into a 96-well plate at 1×10^4 cells/200 μL. well of medium. After adherence, the medium was discarded, and the cells were subjected to drug treatments. Normal group (serum-free medium), LPS model group (serum-free medium containing 1 μg/mL LPS), LPS+drug group (serum-free medium containing 1 μg/mL LPS, 10 μM gemfibrozil or the compound of the present application) were established, and 3 repeated wells were set for each group. After 24 hours incubation in incubator, cell supernatant of each well was collected and assay was performed according to the instructions of NO determination kit (Nanjing Jiancheng). The absorbance value of each well at wavelength of 540 nm was read and NO content was calculated.

[5] = system: CPT1α; test: CPT1α protein level by Western blotting in HepG2; assay type: cell-based, human; conditions: 1 μM, 24 hours, HepG2, Western blotting (FIG. 6A)
Description: as §1, §2

[6] = system: antioxidant response element (ARE); test: ARE luciferase reporter gene activity in HepG2 cells; assay type: cell-based, human; conditions: 50 μM, HepG2 stably transfected (FIG. 4)
Experimental: (§5) NF-κB was the most important inflammatory signal pathway. SW480 human colon cancer cells stably transfected with a luciferase reporter gene driven by NF-κB were used to determine the effects of the compound of the present application and the control drug gemfibrozil on NF-κB transcriptional activity, which comprised the following steps. • (1) Cells stably transfected with NF-κB Luc were cultivated to exponential growth, inoculated at a culture medium concentration of 1×10^5/[…] in a 24-well plate, and cultured for 24 hours, the medium was discarded, and the test compound or gemfibrozil formulated with serum-free medium at 50 μM were added to the 24-well plate and incubation was continued for 6 hours. After washing once with 200 μL of PBS, 100 μL of reporter gene cell lysis buffer was added, the cells were lysed on ice for 10 minutes, and the cell lysate was collected by pipetting. • (2) After centrifugation was performed at 8000 rpm and 4° C. for 10 min, the supernatant was pipetted for fluorescence assay. • (3) The measurement gap time of chemiluminescence analyzer was set to 2 s and the measurement time was set to 10 s. Automatic sample injection was adopted, 50 μL of luciferase assay reagent was added to each well. The reporter gene cell lysis buffer was used as a blank control. • (4) After centrifugation, the supernatant was taken, and the BCA method was used to determine the protein concentration so as to normalize the reporter gene results.
In this experimental example, the luciferase activity in HepG2 human liver cancer cells stably transfected with a luciferase reporter gene driven by antioxidant response element (ARE) was determined to evaluate the regulatory effects of the compound of the present application and gemfibrozil on the transcriptional activity of transcription factor Nrf2 and the cellular oxidative stress response signals, in which the operation process of the reporter gene assay was the same as that of Experimental Example 2.2.

[7] = system: NF-κB; test: NF-κB luciferase reporter gene transcriptional activity in SW480 cells; assay type: cell-based, human; conditions: 50 μM, 6 hours, SW480 stably transfected (FIG. 3)
Experimental: as §5

[8] = system: PGC1α; test: PGC1α mRNA expression by real-time quantitative PCR in HepG2; assay type: cell-based, human; conditions: 1 μM, 6 hours, HepG2 (FIG. 5C)
Description: as §3, §4

[9] = system: PPARγ; test: PPARγ mRNA expression by real-time quantitative PCR in HepG2; assay type: cell-based, human; conditions: 1 μM, 6 hours, HepG2 (FIG. 5B)
Description: as §3, §4

Compound | phosphorylation level of GSK3β [1] | ACOX1 mRNA expression [2] | phosphorylation level of IRS-1 [3] | NO generation induced by LPS [4] | CPT1α protein level [5] | ARE reporter gene activity [6] | activity of NF-κB reporter gene [7] | PGC1α mRNA expression [8] | PPARγ mRNA expression [9]
Cc1cc(Br)c(C)c(Br)c1OCCCC(C)(C)C(=O)O [BJMU-109, 5-(2,4-dibromo-3,6-dimethylphenoxy)-2,2-dimethylpentanoic acid] | significantly increased the phosphorylation level of GSK3β | significantly induced ACOX1 mRNA expression | significantly increased the phosphorylation level of IRS-1 | could inhibit NO generation | – | – | – | – | –
Cc1cc(F)c(C)c(OCCCC(C)(C)C(=O)O)c1 [BJMU-213, 5-(3-fluoro-2,5-dimethylphenoxy)-2,2-dimethylpentanoic acid] | significantly increased the phosphorylation level of GSK3β | – | significantly increased the phosphorylation level of IRS-1 | – | significantly increased CPT1α protein level | – | – | – | –
Cc1ccc(C)c(OCCCC(C)(C)C(=O)O)c1Br [BJMU-404, 5-(2-bromo-3,6-dimethylphenoxy)-2,2-dimethylpentanoic acid] | significantly increased the phosphorylation level of GSK3β | significantly induced ACOX1 mRNA expression | significantly increased the phosphorylation level of IRS-1 | – | significantly increased CPT1α protein level | could significantly activate the ARE reporter gene activity | could significantly inhibit the activity of NF-κB reporter gene | – | –
Cc1cc(Br)c(C)c(C)c1OCCCC(C)(C)C(=O)O [BJMU-409, 5-(4-bromo-2,3,6-trimethylphenoxy)-2,2-dimethylpentanoic acid] | significantly increased the phosphorylation level of GSK3β | significantly induced ACOX1 mRNA expression | significantly increased the phosphorylation level of IRS-1 | – | significantly increased CPT1α protein level | could significantly activate the ARE reporter gene activity | – | significantly induced PGC1α mRNA expression | –
Cc1cc(OCCCC(C)(C)C(=O)O)c(CO)cc1Br [BJMU-502, 5-(4-bromo-2-(hydroxymethyl)-5-methylphenoxy)-2,2-dimethylpentanoic acid] | – | significantly induced ACOX1 mRNA expression | significantly increased the phosphorylation level of IRS-1 | could inhibit NO generation | significantly increased CPT1α protein level | could significantly activate the ARE reporter gene activity | – | significantly induced PGC1α mRNA expression | significantly induced PPARγ mRNA expression
